Test results reported in patent US20100292205A1, “Pyrimidone Compounds As GSK-3 Inhibitors” (PFIZER INC., priority 2006, published 2010).

Molecular target: T1, Recombinant human GSK3β (Homo sapiens, UniProt P49841)
T1 construct: His-tag; made in house; host or cells: Sf9 insect cells / baculovirus
Assay: GSK-3β (Glycogen Synthase Kinase) cell free enzyme assay
Format: biochemical
Details: cell free enzyme assay; Examples 62-155
Method in brief: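 Recombinant human GSK3β, expressed in SF9/baculovirus cells and His-tag purified on Ni-NTA Superflow, was preincubated with test agent for 30 minutes at room temperature. Substrate mix was then added to start the reaction in 8 mM MOPS (pH 7.0), 10 mM magnesium acetate, 0.2 mM EDTA, 1 mM DTT, 2 uM cold ATP, 0.025 uCi/well [33P]ATP (120 uL) and 1.0 uM biotinylated peptide. Reactions ran at RT for 60 min.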

T1 sequence (P49841 whole entry): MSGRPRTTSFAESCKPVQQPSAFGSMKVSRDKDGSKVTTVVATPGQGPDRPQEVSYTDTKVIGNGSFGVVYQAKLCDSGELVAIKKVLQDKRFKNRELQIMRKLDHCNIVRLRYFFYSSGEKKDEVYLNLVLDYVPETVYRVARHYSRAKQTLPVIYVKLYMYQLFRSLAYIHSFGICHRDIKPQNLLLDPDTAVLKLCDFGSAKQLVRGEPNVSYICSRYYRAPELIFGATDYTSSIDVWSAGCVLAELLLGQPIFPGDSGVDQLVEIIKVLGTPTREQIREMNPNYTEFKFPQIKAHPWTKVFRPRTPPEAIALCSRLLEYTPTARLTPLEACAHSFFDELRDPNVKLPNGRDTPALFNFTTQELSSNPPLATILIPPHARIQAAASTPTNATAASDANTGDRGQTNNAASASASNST

| SMILES | IC50 [nM] |
| --- | --- |
| CCCC(C)C(=O)N1C[C@@H]2[C@H](C1)[C@H]2N(C)c1nc(-c2ccncc2F)cc(=O)n1C (stereo partly drawn) [Example 100, 6-(3-Fluoropyridin-4-yl)-3-methyl-2-{methyl[(1R,5S,6s)-3-(2-methylpentanoyl)-3-azabicyclo[3.1.0]hex-6-yl]amino}pyrimidin-4(3H)-one] | 9.02 |
| COc1cccc(CC(=O)N2C[C@@H]3[C@H](C2)[C@H]3N(C)c2nc(-c3ccncc3F)cc(=O)n2C)c1 [Example 101, 6-(3-Fluoropyridin-4-yl)-2-[{(1R,5S,6s)-3-[(3-methoxyphenyl)acetyl]-3-azabicyclo[3.1.0]hex-6-yl}(methyl)amino]-3-methylpyrimidin-4(3H)-one] | 13.6 |
| CSCCC(=O)N1C[C@@H]2[C@H](C1)[C@H]2N(C)c1nc(-c2ccncc2F)cc(=O)n1C [Example 102, 6-(3-Fluoropyridin-4-yl)-3-methyl-2-(methyl{(1R,5S,6s)-3-[3-(methylthio)propanoyl]-3-azabicyclo[3.1.0]hex-6-yl}amino)pyrimidin-4(3H)-one] | 16 |
| Cc1cc(C(=O)N2C[C@@H]3[C@H](C2)[C@H]3N(C)c2nc(-c3ccncc3F)cc(=O)n2C)cc(Cl)n1 [Example 104, 2-{[(1R,5S,6s)-3-(2-Chloro-6-methylisonicotinoyl)-3-azabicyclo[3.1.0]hex-6-yl](methyl)amino}-6-(3-fluoropyridin-4-yl)-3-methylpyrimidin-4(3H)-one] | 16.1 |
| CN(c1nc(-c2ccncc2F)cc(=O)n1C)[C@H]1[C@@H]2CN(C(=O)c3ccoc3)C[C@@H]21 [Example 105, 6-(3-Fluoropyridin-4-yl)-2-{[(1R,5S,6s)-3-(3-furoyl)-3-azabicyclo[3.1.0]hex-6-yl](methyl)amino}-3-methylpyrimidin-4(3H)-one] | 8.81 |
| CN(c1nc(-c2ccncc2F)cc(=O)n1C)[C@H]1[C@@H]2CN(C(=O)C3CCC3)C[C@@H]21 [Example 107, 2-{[(1R,5S,6s)-3-(Cyclobutylcarbonyl)-3-azabicyclo[3.1.0]hex-6-yl](methyl)amino}-6-(3-fluoropyridin-4-yl)-3-methylpyrimidin-4(3H)-one] | 18.4 |
| CC(C)CC(=O)N1C[C@@H]2[C@H](C1)[C@H]2N(C)c1nc(-c2ccncc2F)cc(=O)n1C [Example 110, 6-(3-Fluoropyridin-4-yl)-3-methyl-2-{methyl[(1R,5S,6s)-3-(3-methylbutanoyl)-3-azabicyclo[3.1.0]hex-6-yl]amino}pyrimidin-4(3H)-one] | 18.3 |

The next molecules have a lower IC50 than those just listed; values first:

| IC50 [nM] | SMILES |
| --- | --- |
| 2.77 | CCC(C)C(=O)N1C[C@@H]2[C@H](C1)[C@H]2N(C)c1nc(-c2ccncc2F)cc(=O)n1C (stereo partly drawn) [Example 103, 6-(3-Fluoropyridin-4-yl)-3-methyl-2-{methyl[(1R,5S,6s)-3-(2-methylbutanoyl)-3-azabicyclo[3.1.0]hex-6-yl]amino}pyrimidin-4(3H)-one] |
| 0.91 | COc1ccccc1C(=O)N1C[C@@H]2[C@H](C1)[C@H]2N(C)c1nc(-c2ccncc2F)cc(=O)n1C [Example 106, 6-(3-Fluoropyridin-4-yl)-2-{[(1R,5S,6s)-3-(2-methoxybenzoyl)-3-azabicyclo[3.1.0]hex-6-yl](methyl)amino}-3-methylpyrimidin-4(3H)-one] |
| 6.39 | CN(c1nc(-c2ccncc2F)cc(=O)n1C)[C@H]1[C@@H]2CN(C(=O)C3CCCC3)C[C@@H]21 [Example 108, 2-{[(1R,5S,6s)-3-(Cyclopentylcarbonyl)-3-azabicyclo[3.1.0]hex-6-yl](methyl)amino}-6-(3-fluoropyridin-4-yl)-3-methylpyrimidin-4(3H)-one] |
| 4.03 | COc1ccc(CC(=O)N2C[C@@H]3[C@H](C2)[C@H]3N(C)c2nc(-c3ccncc3F)cc(=O)n2C)cc1 [Example 109, 6-(3-Fluoropyridin-4-yl)-2-[{(1R,5S,6s)-3-[(4-methoxyphenyl)acetyl]-3-azabicyclo[3.1.0]hex-6-yl}(methyl)amino]-3-methylpyrimidin-4(3H)-one] |
